One assay addresses T1, HLA-A2 (Homo sapiens, UniProt P04439, D140Y/D185E/D98H/E176V/E277Q/G131W/G231S/I119V/I121R/I166T/I218V/L300P/L318F/N151K/N90K/P208A/P217A/Q86G/Q94H/R138H/R169H/T345S).
T1 construct: endogenous in cells; host or cells: T2A2 / 174CEM-T2 (T2) transport deletion mutant cell line
In words: Stability of peptide-HLA-A2 complex on T2A2 cells (brefeldin A). Format: binding. The following applies: 50 μg/ml overnight, 8-h observation period, FIG. 2. The procedure:
FIG. 2. Comparison of the stability of the complex of the PSA-3 or PSA-3A peptide with HLA-A2. T2A2 cells were incubated with PSA-3 (open squares) or PSA-3A (closed squares) peptide at a concentration of 50 μg/ml overnight and then washed free of unbound peptide and incubated with brefeldin A to block delivery of new class I molecules to cell surface. At indicated times, cells were stained for the presence of surface peptide-HLA-A2 complexes. Results are expressed in relative % binding as compared to 100% binding at time zero.
Studies were then undertaken to examine the stability of the peptideMHC complex for peptides PSA-3 and PSA-3A. Peptides were incubated with T2A2 cells overnight, washed free of unbound peptide and incubated with brefeldin-A to block delivery of new class I molecules to the cell surface. At various time points, cells were analyzed for the presence of peptide-HLA-A2 complexes. […] Thus, both the ability of the peptide to bind MHC (FIGS. 1A–1B) and the stability (FIG. 2), i.e., avidity of the peptide-MHC complex, are greater for the PSA-3A peptide than the native PSA-3 peptide.

In the next assay the test system is V8T cells. Format: cell-based, human.
Another assay deals with T-PSA-3 cells. In words: Cytometric Bead Array cytokine production by peptide-stimulated T cells. Format: cell-based, human. On the procedure: (§1) Detection of Cytokines. Supernatant of T cells exposed for 24 h to peptide-pulsed infected DC, rV-PSA infected DC, or rV-PSA-3A infected DC, in IL-2-free medium at various responder: stimulator ratios, were screened for secretion of IFN-γ using an ELISA kit (R & D Systems, Minneapolis, Minn.). The results were calculated as pg/ml. A Cytometric Bead Array (CBA) system (BD PharMingen, San Diego, Calif.) was also used to determine the secretion of multiple cytokines by specific T cell lines. The CBA system uses the fluorescence detection by flow cytometry to measure soluble analytes in a particle-based immunoassay. The BD human Th1/Th2 cytokine CBA Kit was employed to measure IL-2, IL-4, IL-5, IL-10, TNF-α, and IFN-γ protein levels in a single sample. The cytokine capture beads were mixed with PE-conjugated detection antibodies and then incubated with recombinant cytokine standards or test samples to form sandwich complexes. The samples results were generated in graphical and tabular format using BD CBA analysis software. The results were calculated as pg/ml.
The cytokine profile of T cells stimulated with APCs pulsed with either the PSA-3 or the PSA-3A peptide was then analyzed. The T cell line derived using the PSA-3 peptide was used in these studies, and the APCs used were autologous B cells. A Cytometric Bead Array (CBA) assay was used for analysis (see Examples section) using supernatant fluids obtained 24 h after stimulation. FIGS. 6A–6C illustrate […] of the 10 internal standards used for the calibration of the results obtained in this assay. FIGS. 6D–6F show the levels of each of six cytokines produced by T cells stimulated with APCs pulsed with no peptide, PSA-3A peptide, and PSA-3 peptide, respectively. […] The results obtained for IL-5 will be discussed below (Conclusions section).

Another assay has as its system DCs. In words: IL-12 production by peptide-pulsed DCs in the presence of T cells. The assay is classed as cell-based, human. On the procedure:
It has been previously shown that the activation of T cells by peptidepulsed DCs is related to the level of IL-12 production by the DCs. Studies were therefore conducted to determine the levels of IL-12 production by DCs pulsed with PSA-3 and PSA-3A peptides in the presence of T cells. […] When DCs pulsed with the PSA3A peptide were incubated with both T cell lines, the DCs incubated with the T-PSA-3A line again produced higher levels of IL-12 than those peptide-pulsed DCs incubated with the T cell line T-PSA-3 (Table 3).

The test system of the next assay is T-PSA-3A cells. In words: IFN-γ production by T cell line stimulated with peptide-pulsed DCs (ELISA). The following applies: peptide 25 μg/ml. The assay is classed as cell-based, human. On the procedure:
as §1
Table 2: Production of IFN-γ by a T cell line stimulated with PSA-3 or agonist PSA-3A peptides. The PSA-specific T cell line T-PSA-3A was used as effector cells at IVS-3. T-PSA-3A cells were stimulated with irradiated HLA-A2 positive allogeneic DCs either pulsed with PSA-3 or PSA-3A peptide at a concentration of 25 μg/ml and an effector-to-APC ratio of 10:1. After 24-h culture supernatants were collected and screened for the secretion of IFN-γ. APC=antigen […].
(In general: ELISA stands for enzyme-linked immunosorbent assay.)

The mark [1] stands for this setting: T-PSA-3 + peptide-pulsed autologous B cells, 24 h supernatant.

Consider one sequence from patent US7247615B2, “Peptide agonists of prostate-specific antigen and uses therefor” (priority 2001, dated 2007).

In the case of VLSNDVCAQV (SEQ ID NO:3) [PSA-3A], the “Stability of peptide-HLA-A2 complexes” value with HLA-A2 is “more stable than PSA-3 complexes”. Moreover, the “Production of IFN-γ by V8T” value in the assay on V8T cells is <13.0 pg/mL. In addition, the “Production of IL-5” value with T-PSA-3 cells (T cells stimulated with PSA-3A as compared to PSA-3 peptide) was “increase”. Also, the “Production of IFN-γ” value in the assay with T-PSA-3 cells (setting [1]) is “greater production”. The “Production of IL-2” value with T-PSA-3 cells (setting [1]) is listed as “greater production”. Also, the “Production of IL-4” value with T-PSA-3 cells (setting [1]) is reported as “Low or undetectable levels”. Further, in the assay on T-PSA-3 cells (setting [1]), the “Production of IL-10” value was “Low or undetectable levels”. Moreover, the “Production of TNF-α” value in the assay on T-PSA-3 cells (setting [1]) is “No TNF-α could be detected”. Also, the “IL-12 PRODUCTION” value is reported as 6.0 pg/ml/5 × 10^5 DC in the assay with DCs (APC DC, T cell line T-PSA-3, peptide 25 μg/ml, 10:1, 24 h, IVS-4); 27.5 pg/ml/5 × 10^5 DC in the assay on DCs (APC DC, T cell line T-PSA-3A, peptide 25 μg/ml, 10:1, 24 h, IVS-4); <0.6 pg/ml/5 × 10^5 DC with DCs (no APC, T cell line T-PSA-3, peptide 25 μg/ml, 24 h); <0.6 pg/ml/5 × 10^5 DC in the assay on DCs (no APC, T cell line T-PSA-3A, peptide 25 μg/ml, 24 h). Further, the “PRODUCTION OF IFN-γ” value in the assay on T-PSA-3A cells (APC DCs, T-PSA-3A T cells present, effector-to-APC 10:1, 24 h, IVS-3) is 566 pg/mL; with T-PSA-3A cells (APC DCs, no T cell, 24 h) it was <15 pg/mL; in the assay on T-PSA-3A cells (no APC, T-PSA-3A T cells present, 24 h), <15 pg/mL.
